Source: article PMC4638191, “Multicomponent reaction-based synthesis and biological evaluation of tricyclic heterofused quinolines with multi-trypanosomatid activity” (European Journal of Medicinal Chemistry, 2015)
Where two headings read alike, the source gives them in different places.

How the values were obtained:
in vitro = settings: rat, rat skeletal muscle L6 cells
Protocol: (§1) Cytotoxicity against mammalian cells was assessed using microtitre plates following a described procedure [58]. Briefly, rat skeletal muscle L6 cells were seeded at 1 × 10^4 mL^−1 in 200 μL of growth medium containing different compound concentrations. The plates were incubated for 6 days at 37 °C and 20 μL resazurin was then added to each well. After a further 8 h incubation, the fluorescence was determined using a Spectramax plate reader.

[1] = tested on: T. cruzi strain MHOM/ES/2203/BCN590 (Tcl) epimastigote forms; experiment: Activity against epimastigotes of T. cruzi (cell counting); settings: mean ± SD of duplicate experiments performed at least twice
[2] = for Pe: PAMPA-BBB, PBS:EtOH 70:30, mean ± SD of three independent experiments; for Pe (prediction) of BBB permeation: class from PAMPA-BBB Pe
Protocol: Thus, the brain passive permeability of the novel compounds was evaluated in vitro through the widely used PAMPA-BBB method [[50]

[3] = tested on: rat skeletal myoblast L6 cells; experiment: cells; settings: L6, read-out: L6 cells IC50
Protocol: as §1

[4] = molecular target: Electrophorus electricus AChE (EeAChE) (Electrophorus electricus, UniProt O42275); experiment: biochemical; format: biochemical; settings: for IC50: mean ± SEM
Electrophorus electricus AChE (EeAChE), sequence (O42275 24-633): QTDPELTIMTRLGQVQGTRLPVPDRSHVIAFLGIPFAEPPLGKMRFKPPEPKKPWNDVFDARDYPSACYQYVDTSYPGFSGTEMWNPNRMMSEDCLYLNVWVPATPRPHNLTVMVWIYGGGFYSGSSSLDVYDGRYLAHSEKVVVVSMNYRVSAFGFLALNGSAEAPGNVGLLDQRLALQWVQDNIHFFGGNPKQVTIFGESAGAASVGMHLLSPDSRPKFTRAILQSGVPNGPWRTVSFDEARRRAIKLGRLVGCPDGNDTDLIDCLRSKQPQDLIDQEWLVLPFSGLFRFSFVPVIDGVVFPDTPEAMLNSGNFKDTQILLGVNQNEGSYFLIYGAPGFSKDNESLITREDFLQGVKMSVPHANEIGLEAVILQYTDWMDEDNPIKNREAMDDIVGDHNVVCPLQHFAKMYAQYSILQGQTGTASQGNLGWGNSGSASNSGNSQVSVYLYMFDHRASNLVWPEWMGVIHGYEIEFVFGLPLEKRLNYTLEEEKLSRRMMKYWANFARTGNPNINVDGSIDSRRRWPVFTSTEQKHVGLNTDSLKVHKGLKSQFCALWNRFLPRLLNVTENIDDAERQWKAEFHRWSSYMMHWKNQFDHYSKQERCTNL

[5] = tested on: L. infantum strain MCAN/ES/92/BCN722 promastigote forms; experiment: Activity against promastigotes of L. infantum (acid phosphatase); format: cell-based, Leishmania infantum; settings: promastigote form, mean ± SD of duplicate experiments performed at least twice
[6] = tested on: bloodstream form T. brucei (strain 221); experiment: Trypanocidal activity against cultured bloodstream form T. brucei (resazurin); settings: for IC50: mean of triplicate ± SEM; for IC90: pH 7.4, read-out: T. brucei IC90
Protocol: T. brucei in the logarithmic phase of growth were diluted back to 2.5 × 10^4 mL^−1 and aliquoted into 96-well plates. The compounds were then added at a range of concentrations and the plates incubated at 37 °C. Each drug concentration was tested in triplicate. Resazurin was added after 48 h and the plates incubated for a further 16 h and the plates then read in a Spectramax plate reader. Results were analysed using GraphPad Prism.

[7] = SILi: selectivity index as the ratio of cytotoxic to anti-L. infantum IC50 values, L6 IC50 / L. infantum IC50
[8] = SITb: selectivity index as the ratio of cytotoxic to anti-T. brucei IC50 values, L6 IC50 / T. brucei IC50
[9] = SITc: selectivity index as the ratio of cytotoxic to anti-T. cruzi IC50 values, L6 IC50 / T. cruzi IC50
[10] = Trypanosoma cruzi, read-out: T. cruzi IC50, epimastigote form
[11] = Trypanosoma brucei, pH 7.4, read-out: T. brucei IC50, bloodstream form, pH 7.4
[12] = read-out: T. brucei IC50, bloodstream form, pH 7.4
[13] = read-out: T. cruzi IC50, epimastigote form

Row | Compound | selectivity ratio at 6 days (in vitro; [7]) | selectivity ratio at 6 days (in vitro; [8]) | selectivity ratio at 6 days (in vitro; [9]) | IC50 [1, 10] | Pe [2] | IC50 [3] | IC50 [4] | IC50 ([5]; Leishmania infantum) | IC50 [6, 11] | IC90 ([6]; Trypanosoma brucei) | Pe (prediction) of BBB permeation [2] | IC50 [6, 12] | IC50 [5] | IC50 [1, 13] | inhibition at 30 µM ([4]; 30 μM, the IC50 could not be determined)
1 | NCc1ccc(-c2nc3ccc(Cl)cc3c3c2CCCN3)cc1 [Compound 31, 4-{9-Chloro-1,2,3,4-tetrahydrobenzo[h][1,6]naphthyridin-5-yl}benzylamine] | 0.8 | 3.7 | 0.2 | 50.5 ± 14.3 µM | 4.6 ± 0.2 10^−6 cm s^−1 | 8.92 ± 0.25 µM | 970 ± 20 nM | 11.6 ± 2.5 µM | 2.44 ± 0.13 µM | 3.48 ± 0.05 µM |  |  |  |  | 
2 | N#Cc1ccc(-c2nc3ccc(Cl)cc3c3c2CCN3)cc1 [Compound 26, 4-{8-Chloro-2,3-dihydro-1H-pyrrolo[3,2-c]quinolin-4-yl}benzonitrile] |  |  |  | > 150 µM | 6.8 ± 0.3 10^−6 cm s^−1 |  | 1190 ± 150 nM | > 200 µM | > 30 µM | > 30 µM | CNS+ (compounds of high BBB permeation (CNS+): Pe (10^−6 cm s^−1) > 5.25) |  |  |  | 
3 | OCCCc1cc2cc(Cl)ccc2nc1-c1ccco1 [Compound 44, 3-[6-chloro-2-(2-furyl)quinolin-3-yl]-1-propanol] |  |  |  | 29.3 ± 12 µM | 10.3 ± 1.5 10^−6 cm s^−1 |  |  | 19.3 ± 11.3 µM | > 25 µM | 70.6 ± 1.5 µM | CNS+ (compounds of high BBB permeation (CNS+): Pe (10^−6 cm s^−1) > 5.25) | 35.7 ± 1.8 µM |  |  | 
4 | N#Cc1ccc(-c2nc3cc(Cl)ccc3cc2CCCN)cc1 [Compound 35, 4-[3-(3-Aminopropyl)-7-chloroquinolin-2-yl]benzonitrile] | 1.3 | 4.9 | 0.3 | 78.8 ± 1.7 µM | 18.3 ± 0.6 10^−6 cm s^−1 | 20.4 ± 0.4 µM |  | ~15 µM | ~5 µM | 5.61 ± 0.05 µM | CNS+ (compounds of high BBB permeation (CNS+): Pe (10^−6 cm s^−1) > 5.25) | 4.16 ± 0.07 µM | 16.2 ± 4 µM |  | 
5 | N#Cc1ccc(-c2nc3ccc(Cl)cc3c3c2CCCCN3)cc1 [Compound 28, 4-{10-Chloro-2,3,4,5-tetrahydro-1H-azepino[3,2-c]quinolin-6-yl}benzonitrile] |  |  |  | 64.6 ± 12.5 µM | 20.0 ± 1.1 10^−6 cm s^−1 |  | 2200 ± 300 nM | 13.7 ± 2.2 µM | 17.3 ± 2.1 µM | 28.6 ± 6.7 µM | CNS+ (compounds of high BBB permeation (CNS+): Pe (10^−6 cm s^−1) > 5.25) |  |  |  | 
6 | CCN(CC)CCCc1cc2cc(Cl)ccc2nc1-c1cccs1 [Compound 50, N-{3-[6-Chloro-2-(2-thienyl)quinolin-3-yl]propyl}-N,N-diethylamine] | 1.1 | 2.3 | 0.2 | 77.6 ± 11.2 µM | 20.9 ± 0.5 10^−6 cm s^−1 | 14.7 ± 2.3 µM |  | ~15 µM | ~5 µM | 12.6 ± 0.9 µM | CNS+ (compounds of high BBB permeation (CNS+): Pe (10^−6 cm s^−1) > 5.25) | 6.33 ± 0.94 µM | 13.6 ± 1.5 µM |  | 
7 | N#CCCc1cc2cc(Cl)ccc2nc1-c1cccs1 [Compound 47, 3-[6-Chloro-2-(2-thienyl)quinolin-3-yl]propanenitrile] |  |  |  | 51.7 ± 5.1 µM | 17.9 ± 1.1 10^−6 cm s^−1 |  |  | 23.3 ± 5.9 µM | > 25 µM | > 30 µM | CNS+ (compounds of high BBB permeation (CNS+): Pe (10^−6 cm s^−1) > 5.25) | > 30 µM |  |  | 
8 | N#Cc1ccc([C@H]2Nc3ccc(Cl)cc3[C@@H]3OCCC[C@H]23)cc1 [Compound 37] |  |  |  | 676 ± 37 µM | 7.0 ± 0.7 10^−6 cm s^−1 |  |  | > 200 µM | > 30 µM | > 30 µM | CNS+ (compounds of high BBB permeation (CNS+): Pe (10^−6 cm s^−1) > 5.25) |  |  |  | 
9 | NCc1ccc(-c2nc3ccc(Cl)cc3c3c2CCN3)cc1 [Compound 30, 4-{8-Chloro-2,3-dihydro-1H-pyrrolo[3,2-c]quinolin-4-yl}benzylamine] | 0.4 | 2.8 | 0.1 | ~30 µM | 7.4 ± 2.6 10^−6 cm s^−1 | 2.54 ± 0.92 µM | 870 ± 80 nM | 6.5 ± 1.4 µM | 0.92 ± 0.05 µM | 1.57 ± 0.03 µM | CNS+ (compounds of high BBB permeation (CNS+): Pe (10^−6 cm s^−1) > 5.25) |  |  | 37.3 ± 11 µM | 
10 | Clc1ccc2nc(-c3cccs3)c3c(c2c1)OCCC3 [Compound 43, 9-Chloro-3,4-dihydro-5-(2-thienyl)-2H-pyrano[3,2-c]quinoline] |  |  |  | > 250 µM | 14.4 ± 1.6 10^−6 cm s^−1 |  | 9390 ± 820 nM | 51.4 ± 2.3 µM | 18 ± 0.4 µM | 27.6 ± 1.1 µM | CNS+ (compounds of high BBB permeation (CNS+): Pe (10^−6 cm s^−1) > 5.25) |  |  |  | 
11 | NCc1ccc(-c2nc3cc(Cl)ccc3c3c2CCCN3)cc1 [Compound 33, 4-{8-Chloro-1,2,3,4-tetrahydrobenzo[h][1,6]naphthyridin-5-yl}benzylamine] | 0.2 | 2.5 | 0.04 | 76.1 ± 3.2 µM | 4.0 ± 1.0 10^−6 cm s^−1 | 3.07 ± 0.66 µM | 440 ± 40 nM | 13 ± 0.6 µM | 1.25 ± 0.05 µM | 2.12 ± 0.02 µM |  |  |  |  | 
12 | N#Cc1ccc(-c2nc3ccc(Cl)cc3c3c2CCCN3)cc1 [Compound 27, 4-{9-Chloro-1,2,3,4-tetrahydrobenzo[h][1,6]naphthyridin-5-yl}benzonitrile] | 2.5 | 6.4 | 0.3 | 147 ± 19 µM | 14.3 ± 0.1 10^−6 cm s^−1 | 38.8 ± 1.7 µM | 1130 ± 170 nM | 15.3 ± 3.6 µM | 6.07 ± 0.54 µM | 10.5 ± 0.2 µM | CNS+ (compounds of high BBB permeation (CNS+): Pe (10^−6 cm s^−1) > 5.25) |  |  |  | 
13 | Clc1ccc2nc(-c3ccco3)c3c(c2c1)OCCC3 [Compound 42, 9-Chloro-5-(2-furyl)-3,4-dihydro-2H-pyrano[3,2-c]quinoline] |  |  |  | 76.1 ± 7.8 µM | 3.5 ± 0.4 10^−6 cm s^−1 |  | 16300 ± 1500 nM | 38.4 ± 21.6 µM | 21.7 ± 1.2 µM | 29.3 ± 0.5 µM |  |  |  |  | 
14 | Clc1ccc2nc(-c3cccs3)c(CCCN3CCCC3)cc2c1 [Compound 49, N-{3-[6-Chloro-2-(2-thienyl)quinolin-3-yl]propyl}pyrrolidine] | 0.7 | 2.7 | 0.3 | 35.2 ± 12.6 µM | 12.9 ± 0.1 10^−6 cm s^−1 | 9.44 ± 0.14 µM | ~30000 nM | ~15 µM | ~5 µM | 4.93 ± 0.17 µM | CNS+ (compounds of high BBB permeation (CNS+): Pe (10^−6 cm s^−1) > 5.25) | 3.56 ± 0.17 µM | 13.1 ± 5.8 µM |  | 54%
15 | N#Cc1ccc(-c2nc3cc(Cl)ccc3c3c2CCCN3)cc1 [Compound 29, 4-{8-Chloro-1,2,3,4-tetrahydrobenzo[h][1,6]naphthyridin-5-yl}benzonitrile] |  |  |  | 39.4 ± 0.2 µM | 16.2 ± 0.1 10^−6 cm s^−1 |  | 3270 ± 430 nM | 19 ± 3 µM | > 30 µM | > 30 µM | CNS+ (compounds of high BBB permeation (CNS+): Pe (10^−6 cm s^−1) > 5.25) |  |  |  | 
16 | NCc1ccc(-c2nc3ccc(Cl)cc3c3c2CCCCN3)cc1 [Compound 32, 4-{10-Chloro-2,3,4,5-tetrahydro-1H-azepino[3,2-c]quinolin-6-yl}benzylamine] | 1.5 | 3 | 0.2 | ~30 µM | 11.6 ± 0.2 10^−6 cm s^−1 | 7.02 ± 0.27 µM | 1200 ± 130 nM | 5 to 8 µM | 2.33 ± 0.12 µM | 3.35 ± 0.05 µM | CNS+ (compounds of high BBB permeation (CNS+): Pe (10^−6 cm s^−1) > 5.25) |  | 4.8 ± 0.7 µM | 32.4 ± 0.6 µM | 
17 | OCCCc1cc2cc(Cl)ccc2nc1-c1cccs1 [Compound 45, 3-[6-chloro-2-(2-thienyl)quinolin-3-yl]-1-propanol] |  |  |  | 51.7 ± 19.4 µM | 28.4 ± 1.2 10^−6 cm s^−1 |  |  | 37.3 ± 2.3 µM | > 25 µM | 42.9 ± 1.5 µM | CNS+ (compounds of high BBB permeation (CNS+): Pe (10^−6 cm s^−1) > 5.25) | 28 ± 0.7 µM |  |  | 
